{
  "source": "patent US12668845B2",
  "about": "“Methods for predicting drug responsiveness in cancer patients” (Allarity Therapeutics Europe ApS, priority 2018, dated 2026)",
  "key": {"HEC-59": {"tested_on": "HEC-59", "experiment": "Growth inhibition of cell lines treated with 2X-121", "assay_type": "cell-based", "conditions": "cell line HEC-59, origin Endometrial; read-out: Measured growth inhibition IC50"}, "HEC-6": {"tested_on": "HEC-6", "experiment": "Growth inhibition of cell lines treated with 2X-121", "assay_type": "cell-based", "conditions": "cell line HEC-6, origin Endometrial; read-out: Measured growth inhibition IC50"}, "HT": {"tested_on": "HT", "experiment": "Growth inhibition of cell lines treated with 2X-121", "assay_type": "cell-based", "conditions": "Homo sapiens; cell line HT, origin DLBCL (GC); read-out: Measured growth inhibition IC50", "procedure": "(§1) The NCI60 panel of cell lines can be used to determine sensitivity to 2X-121, but it is also possible to use other cell line panels.\n(§2) Baseline DNA chip measurements of 61 of the cancer cell lines in Table 1 (excluding M14 HEC-1 ECC-1 SNG-II HEC-88nu SR IM-9 Namalwa MC/CAR U266 JVM-13 NCEB-1 ARH-77) were performed using Affymetrix HG-U133Plus2 arrays and logit normalized. For each array, the logit transformation was performed followed by a Z-transformation to mean zero and SD 1, and correlated to growth inhibition (−log(GI50)). The expression level of each of the genes of Tables 2 and 3 in each cell line was correlated to the growth of those cell lines (log(GI50)) in the presence of 2X-121. The Pearson correlation coefficient was then determined to identify genes positively and negatively correlated to sensitivity to 2X-121. Tables 2 and 3 show the top positively correlated genes (the biomarkers of sensitivity) and negatively correlated genes (the biomarkers of resistance). In particular, genes with a Pearson correlation greater than 0.25 or below −0.25 can be classified as biomarkers of sensitivity or resistance, respectively."}, "JVM-2": {"tested_on": "JVM-2", "experiment": "Growth inhibition of cell lines treated with 2X-121", "assay_type": "cell-based", "conditions": "Homo sapiens; cell line JVM-2, origin MCL; read-out: Measured growth inhibition IC50", "procedure": "as §1, §2"}, "C3A": {"tested_on": "C3A", "experiment": "Growth inhibition of cell lines treated with 2X-121", "assay_type": "cell-based", "conditions": "Homo sapiens; cell line C3A, origin HCC; read-out: Measured growth inhibition IC50", "procedure": "as §1, §2"}, "NCI-H446": {"tested_on": "NCI-H446", "experiment": "Growth inhibition of cell lines treated with 2X-121", "assay_type": "cell-based", "conditions": "Homo sapiens; cell line NCI-H446, origin SCLC; read-out: Measured growth inhibition IC50", "procedure": "as §1, §2"}, "HT-1080": {"tested_on": "HT-1080", "experiment": "Growth inhibition of cell lines treated with 2X-121", "assay_type": "cell-based", "conditions": "Homo sapiens; cell line HT-1080, origin Fibrosarcoma; read-out: Measured growth inhibition IC50", "procedure": "as §1, §2"}, "RPMI-8226": {"tested_on": "RPMI-8226", "experiment": "Growth inhibition of cell lines treated with 2X-121", "assay_type": "cell-based", "conditions": "Homo sapiens; cell line RPMI-8226, origin Myeloma; read-out: Measured growth inhibition IC50"}, "U937": {"tested_on": "U937", "experiment": "Growth inhibition of cell lines treated with 2X-121", "assay_type": "cell-based", "conditions": "Homo sapiens, U-937; cell line U937, origin Histiocytic lymphoma-monocytic; read-out: Measured growth inhibition IC50"}, "NCI-H524": {"tested_on": "NCI-H524", "experiment": "Growth inhibition of cell lines treated with 2X-121", "assay_type": "cell-based", "conditions": "Homo sapiens; cell line NCI-H524, origin SCLC; read-out: Measured growth inhibition IC50"}, "SNU-182": {"tested_on": "SNU-182", "experiment": "Growth inhibition of cell lines treated with 2X-121", "assay_type": "cell-based", "conditions": "Homo sapiens; cell line SNU-182, origin HCC; read-out: Measured growth inhibition IC50"}, "NCI-H1694": {"tested_on": "NCI-H1694", "experiment": "Growth inhibition of cell lines treated with 2X-121", "assay_type": "cell-based", "conditions": "Homo sapiens; cell line NCI-H1694, origin SCLC; read-out: Measured growth inhibition IC50"}, "NCI-H211": {"tested_on": "NCI-H211", "experiment": "Growth inhibition of cell lines treated with 2X-121", "assay_type": "cell-based", "conditions": "Homo sapiens; cell line NCI-H211, origin SCLC; read-out: Measured growth inhibition IC50"}, "HL-60": {"tested_on": "HL-60", "experiment": "Growth inhibition of cell lines treated with 2X-121", "assay_type": "cell-based", "conditions": "Homo sapiens; cell line HL-60, origin Promyelocytic leukemia; read-out: Measured growth inhibition IC50"}, "HepG2": {"tested_on": "HepG2", "experiment": "Growth inhibition of cell lines treated with 2X-121", "assay_type": "cell-based", "conditions": "Homo sapiens; cell line HepG2, origin HCC; read-out: Measured growth inhibition IC50"}, "HEC-108": {"tested_on": "HEC-108", "experiment": "Growth inhibition of cell lines treated with 2X-121", "assay_type": "cell-based", "conditions": "cell line HEC-108, origin Endometrial; read-out: Measured growth inhibition IC50"}, "ARH-77": {"tested_on": "ARH-77", "experiment": "Growth inhibition of cell lines treated with 2X-121", "assay_type": "cell-based", "conditions": "Homo sapiens; cell line ARH-77, origin Myeloma; read-out: Measured growth inhibition IC50"}, "DU145": {"tested_on": "DU145", "experiment": "Growth inhibition of cell lines treated with 2X-121", "assay_type": "cell-based", "conditions": "Homo sapiens, DU-145; cell line DU145, origin Prostate; read-out: Measured growth inhibition IC50"}, "RL": {"tested_on": "RL", "experiment": "Growth inhibition of cell lines treated with 2X-121", "assay_type": "cell-based", "conditions": "Homo sapiens; cell line RL, origin NHL B cell lymphoma; read-out: Measured growth inhibition IC50"}, "HEC-251": {"tested_on": "HEC-251", "experiment": "Growth inhibition of cell lines treated with 2X-121", "assay_type": "cell-based", "conditions": "cell line HEC-251, origin Endometrial; read-out: Measured growth inhibition IC50"}, "HEC-1A": {"tested_on": "HEC-1A", "experiment": "Growth inhibition of cell lines treated with 2X-121", "assay_type": "cell-based", "conditions": "Homo sapiens; cell line HEC-1A, origin Endometrial; read-out: Measured growth inhibition IC50"}, "P-glycoprotein": {"target": "P-glycoprotein (Homo sapiens, UniProt P08183)", "sequence (P08183 whole entry)": "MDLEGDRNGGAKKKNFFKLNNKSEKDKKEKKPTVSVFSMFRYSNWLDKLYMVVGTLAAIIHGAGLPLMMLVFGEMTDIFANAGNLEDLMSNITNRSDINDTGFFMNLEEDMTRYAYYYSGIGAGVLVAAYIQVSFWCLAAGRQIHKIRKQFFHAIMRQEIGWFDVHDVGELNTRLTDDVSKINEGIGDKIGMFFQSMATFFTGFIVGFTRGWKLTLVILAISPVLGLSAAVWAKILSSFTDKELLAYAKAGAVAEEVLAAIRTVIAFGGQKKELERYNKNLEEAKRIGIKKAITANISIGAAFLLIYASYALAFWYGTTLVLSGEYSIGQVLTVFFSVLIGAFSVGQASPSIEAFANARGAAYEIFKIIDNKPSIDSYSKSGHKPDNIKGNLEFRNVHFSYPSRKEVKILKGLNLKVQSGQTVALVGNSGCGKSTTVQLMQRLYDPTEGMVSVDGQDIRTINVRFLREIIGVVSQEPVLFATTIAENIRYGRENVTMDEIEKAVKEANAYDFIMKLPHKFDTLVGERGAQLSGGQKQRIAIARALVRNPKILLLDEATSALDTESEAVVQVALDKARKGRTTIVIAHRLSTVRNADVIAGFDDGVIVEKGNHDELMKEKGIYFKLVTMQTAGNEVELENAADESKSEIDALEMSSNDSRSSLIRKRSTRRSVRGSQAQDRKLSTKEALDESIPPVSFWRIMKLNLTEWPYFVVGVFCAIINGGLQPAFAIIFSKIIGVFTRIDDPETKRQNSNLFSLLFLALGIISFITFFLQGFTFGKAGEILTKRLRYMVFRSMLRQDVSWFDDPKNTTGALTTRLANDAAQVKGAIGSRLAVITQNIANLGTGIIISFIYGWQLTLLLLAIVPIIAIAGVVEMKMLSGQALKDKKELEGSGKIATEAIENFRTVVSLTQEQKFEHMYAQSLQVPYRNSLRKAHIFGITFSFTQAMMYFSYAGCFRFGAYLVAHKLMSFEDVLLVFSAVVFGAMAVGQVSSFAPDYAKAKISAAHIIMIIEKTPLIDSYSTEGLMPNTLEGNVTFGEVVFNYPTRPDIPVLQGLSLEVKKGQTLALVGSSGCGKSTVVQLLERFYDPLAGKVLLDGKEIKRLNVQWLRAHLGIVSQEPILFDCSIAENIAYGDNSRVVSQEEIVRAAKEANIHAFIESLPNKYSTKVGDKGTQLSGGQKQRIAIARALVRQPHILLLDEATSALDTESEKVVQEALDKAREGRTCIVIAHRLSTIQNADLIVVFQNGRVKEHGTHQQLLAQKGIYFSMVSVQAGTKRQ", "conditions": "cited from earlier work"}, "HCC1806": {"tested_on": "HCC1806", "experiment": "Growth inhibition of cell lines treated with 2X-121", "assay_type": "cell-based", "conditions": "Homo sapiens; cell line HCC1806, origin Breast; read-out: Measured growth inhibition IC50"}, "U266": {"tested_on": "U266", "experiment": "Growth inhibition of cell lines treated with 2X-121", "assay_type": "cell-based", "conditions": "Homo sapiens, U-266; cell line U266, origin Myeloma; read-out: Measured growth inhibition IC50"}, "KG-1": {"tested_on": "KG-1", "experiment": "Growth inhibition of cell lines treated with 2X-121", "assay_type": "cell-based", "conditions": "Homo sapiens; cell line KG-1, origin AML; read-out: Measured growth inhibition IC50"}, "NCEB-1": {"tested_on": "NCEB-1", "experiment": "Growth inhibition of cell lines treated with 2X-121", "assay_type": "cell-based", "conditions": "NCEB1; cell line NCEB-1, origin MCL; read-out: Measured growth inhibition IC50"}},
  "note": "pIC50: −log10 of the molar value.",
  "data": [
    {"compound": "O=c1[nH]nc2c3c(cccc13)N=C(CN1Cc3ccccc3C1)N2", "note": "[2X-121, 8-(isoindolin-2-ylmethyl)-2,9-dihydro-3H-pyridazino[3,4,5-de]quinazolin-3-one]", "values": [
      {"measurement": "pIC50", "setting": "HEC-59", "value": 5.61},
      {"measurement": "pIC50", "setting": "HEC-6", "value": 5.73},
      {"measurement": "pIC50", "setting": "HT", "value": 6.18},
      {"measurement": "pIC50", "setting": "JVM-2", "value": 4.85},
      {"measurement": "pIC50", "setting": "C3A", "value": 5.60},
      {"measurement": "pIC50", "setting": "NCI-H446", "value": 6.21},
      {"measurement": "pIC50", "setting": "HT-1080", "value": 6.08},
      {"measurement": "pIC50", "setting": "RPMI-8226", "value": 5.03},
      {"measurement": "pIC50", "setting": "U937", "value": 5.57},
      {"measurement": "pIC50", "setting": "NCI-H524", "value": 6.16},
      {"measurement": "pIC50", "setting": "SNU-182", "value": 5.27},
      {"measurement": "pIC50", "setting": "NCI-H1694", "value": 5.61},
      {"measurement": "pIC50", "setting": "NCI-H211", "value": 6.32},
      {"measurement": "pIC50", "setting": "HL-60", "value": 4.99},
      {"measurement": "pIC50", "setting": "HepG2", "value": 5.42},
      {"measurement": "pIC50", "setting": "HEC-108", "value": 5.22},
      {"measurement": "pIC50", "setting": "ARH-77", "value": 5.49},
      {"measurement": "pIC50", "setting": "DU145", "value": 5.74},
      {"measurement": "pIC50", "setting": "RL", "value": 5.60},
      {"measurement": "pIC50", "setting": "HEC-251", "value": 5.90},
      {"measurement": "pIC50", "setting": "HEC-1A", "value": 5.53},
      {"measurement": "substrate for P-glycoprotein", "setting": "P-glycoprotein", "value": "not a substrate for P-glycoprotein"},
      {"measurement": "pIC50", "setting": "HCC1806", "value": 5.74},
      {"measurement": "pIC50", "setting": "U266", "value": 5.17},
      {"measurement": "pIC50", "setting": "KG-1", "value": 5.70},
      {"measurement": "pIC50", "setting": "NCEB-1", "value": 5.28}
    ]}
  ]
}
